Results taken from ChEMBL document CHEMBL1649160, “ST-246 antiviral efficacy in a nonhuman primate monkeypox model: determination of the minimal effective dose and human dose justification” (Antimicrob Agents Chemother, 2009).

Experiments:
[1] = Cmax in human at 6.7 mg/kg, po administered as single dose under fed condition measured after 1 day; assay type: ADME, organism-based; design: dose 6.7 mg/kg, route oral; settings: in vivo
[2] = AUC (0 to 24 hrs) in human at 13.3 mg/kg, po administered as single dose under fed condition measured after 1 day; assay type: ADME, organism-based; design: time < 24 hr, dose 13.3 mg/kg, route oral; settings: plasma
[3] = AUC (0 to 24 hrs) in human at 6.7 mg/kg, po administered as single dose under fed condition measured after 1 day; assay type: ADME, organism-based; design: time < 24 hr, dose 6.7 mg/kg, route oral; settings: plasma
[4] = AUC (0 to 24 hrs) in monkeypox virus infected cynomolgus monkey at 10 mg/kg, po administered as single dose under fed condition measured after 1 day; assay type: ADME, organism-based, Macaca fascicularis; design: time < 24 hr, dose 10 mg/kg, route oral; settings: plasma
[5] = AUC (0 to 24 hrs) in human at 4.2 mg/kg, po qd for 21 days administered under fed condition measured after 21 days; assay type: ADME, organism-based; design: time < 24 hr, dose 4.2 mg/kg, route oral; settings: plasma
[6] = AUC (0 to 24 hrs) in monkeypox virus infected cynomolgus monkey at 30 mg/kg, po qd for 14 days administered under fed condition measured after 14 days; assay type: ADME, organism-based, Macaca fascicularis; design: time < 24 hr, dose 30 mg/kg, route oral; settings: plasma
[7] = Cmax in human at 13.3 mg/kg, po administered as single dose under fed condition measured after 1 day; assay type: ADME, organism-based; design: dose 13.3 mg/kg, route oral; settings: in vivo
[8] = AUC (0 to 24 hrs) in human at 13.3 mg/kg, po qd for 6 days administered under fed condition measured after 6 days; assay type: ADME, organism-based; design: time < 24 hr, dose 13.3 mg/kg, route oral; settings: plasma
[9] = AUC (0 to 24 hrs) in monkeypox virus infected cynomolgus monkey at 10 mg/kg, po qd for 14 days administered under fed condition measured after 7 days; assay type: ADME, organism-based, Macaca fascicularis; design: time < 24 hr, dose 10 mg/kg, route oral; settings: plasma
[10] = Cmax in human at 4.2 mg/kg, po administered as single dose under fed condition measured after 1 day; assay type: ADME, organism-based; design: dose 4.2 mg/kg, route oral; settings: in vivo
[11] = AUC (0 to 24 hrs) in human at 13.3 mg/kg, po qd for 21 days administered under fed condition measured after 21 days; assay type: ADME, organism-based; design: time < 24 hr, dose 13.3 mg/kg, route oral; settings: plasma
[12] = AUC (0 to 24 hrs) in monkeypox virus infected cynomolgus monkey at 30 mg/kg, po administered as single dose under fed condition measured after 1 day; assay type: ADME, organism-based, Macaca fascicularis; design: time < 24 hr, dose 30 mg/kg, route oral; settings: plasma
[13] = Cmax in human at 13.3 mg/kg, po qd qd for 6 days administered under fed condition measured after 6 days; assay type: ADME, organism-based; design: dose 13.3 mg/kg, route oral; settings: in vivo
[14] = Cmax in monkeypox virus infected cynomolgus monkey at 10 mg/kg, po administered as single dose under fed condition measured after 1 day; assay type: ADME, organism-based, Macaca fascicularis; design: dose 10 mg/kg, route oral; settings: in vivo
[15] = AUC (0 to 24 hrs) in human at 4.2 mg/kg, po administered as single dose under fed condition measured after 1 day; assay type: ADME, organism-based; design: time < 24 hr, dose 4.2 mg/kg, route oral; settings: plasma
[16] = Cmax in human at 4.2 mg/kg, po qd for 6 days administered under fed condition measured after 6 days; assay type: ADME, organism-based; design: dose 4.2 mg/kg, route oral; settings: in vivo
[17] = Cmax in human at 13.3 mg/kg, po qd for 21 days administered under fed condition measured after 21 days; assay type: ADME, organism-based; design: dose 13.3 mg/kg, route oral; settings: in vivo
[18] = AUC (0 to 24 hrs) in human at 4.2 mg/kg, po qd for 6 days administered under fed condition measured after 6 days; assay type: ADME, organism-based; design: time < 24 hr, dose 4.2 mg/kg, route oral; settings: plasma
[19] = AUC (0 to 24 hrs) in human at 6.7 mg/kg, po qd for 21 days administered under fed condition measured after 21 days; assay type: ADME, organism-based; design: time < 24 hr, dose 6.7 mg/kg, route oral; settings: plasma
[20] = Cmax in monkeypox virus infected cynomolgus monkey at 30 mg/kg, po administered as single dose under fed condition measured after 1 day; assay type: ADME, organism-based, Macaca fascicularis; design: dose 30 mg/kg, route oral; settings: in vivo
[21] = Cmax in monkeypox virus infected cynomolgus monkey at 10 mg/kg, po qd for 14 days administered under fed condition measured after 14 days; assay type: ADME, organism-based, Macaca fascicularis; design: dose 10 mg/kg, route oral; settings: in vivo
[22] = AUC (0 to 24 hrs) in human at 6.7 mg/kg, po qd for 6 days administered under fed condition measured after 6 days; assay type: ADME, organism-based; design: time < 24 hr, dose 6.7 mg/kg, route oral; settings: plasma
[23] = Cmax in human at 6.7 mg/kg, po qd for 6 days administered under fed condition measured after 6 days; assay type: ADME, organism-based; design: dose 6.7 mg/kg, route oral; settings: in vivo
[24] = Cmax in human at 4.2 mg/kg, po qd for 21 days administered under fed condition measured after 21 days; assay type: ADME, organism-based; design: dose 4.2 mg/kg, route oral; settings: in vivo
[25] = Cmax in monkeypox virus infected cynomolgus monkey at 20 mg/kg, po administered as single dose under fed condition measured after 1 day; assay type: ADME, organism-based, Macaca fascicularis; design: dose 20 mg/kg, route oral; settings: in vivo
[26] = Cmax in human at 6.7 mg/kg, po qd for 21 days administered under fed condition measured after 21 days; assay type: ADME, organism-based; design: dose 6.7 mg/kg, route oral; settings: in vivo
[27] = AUC (0 to 24 hrs) in monkeypox virus infected cynomolgus monkey at 20 mg/kg, po administered as single dose under fed condition measured after 1 day; assay type: ADME, organism-based, Macaca fascicularis; design: time < 24 hr, dose 20 mg/kg, route oral; settings: plasma
[28] = Cmax in monkeypox virus infected cynomolgus monkey at 10 mg/kg, po qd for 14 days administered under fed condition measured after 7 days; assay type: ADME, organism-based, Macaca fascicularis; design: dose 10 mg/kg, route oral; settings: in vivo
[29] = AUC (0 to 24 hrs) in monkeypox virus infected cynomolgus monkey at 30 mg/kg, po qd for 14 days administered under fed condition measured after 7 days; assay type: ADME, organism-based, Macaca fascicularis; design: time < 24 hr, dose 30 mg/kg, route oral; settings: plasma
[30] = AUC (0 to 24 hrs) in monkeypox virus infected cynomolgus monkey at 10 mg/kg, po qd for 14 days administered under fed condition measured after 14 days; assay type: ADME, organism-based, Macaca fascicularis; design: time < 24 hr, dose 10 mg/kg, route oral; settings: plasma
[31] = Cmax in monkeypox virus infected cynomolgus monkey at 30 mg/kg, po qd for 14 days administered under fed condition measured after 7 days; assay type: ADME, organism-based, Macaca fascicularis; design: dose 30 mg/kg, route oral; settings: in vivo
[32] = Cmax in monkeypox virus infected cynomolgus monkey at 30 mg/kg, po qd for 14 days administered under fed condition measured after 14 days; assay type: ADME, organism-based, Macaca fascicularis; design: dose 30 mg/kg, route oral; settings: in vivo

In the case of `O=C(NN1C(=O)[C@@H]2[C@@H]3C=C[C@@H]([C@H]4C[C@@H]34)[C@@H]2C1=O)c1ccc(C(F)(F)F)cc1` [TECOVIRIMAT], the Cmax [1] is reported as 1390 ng/mL, the AUC(0-t) at 24 h [2] is reported as 21000 ng·h/mL and the AUC(0-t) at 24 h [3] is reported as 13100 ng·h/mL. For the same molecule, the AUC(0-t) at 24 h [4] was 13700 ng·h/mL, the AUC at 24 h [5] was 10100 ng·h/mL and the AUC at 24 h [6] was 15800 ng·h/mL. The Cmax [7] was 2280 ng/mL, the AUC at 24 h [8] was 23400 ng·h/mL and the AUC at 24 h [9] was 12600 ng·h/mL. The Cmax [10] was 985 ng/mL, the AUC at 24 h [11] was 22700 ng·h/mL and the AUC(0-t) at 24 h [12] was 18100 ng·h/mL. The Cmax [13] was 2340 ng/mL, the Cmax [14] was 1010 ng/mL and the AUC(0-t) at 24 h [15] was 9100 ng·h/mL. The Cmax [16] was 1210 ng/mL, the Cmax [17] was 2440 ng/mL and the AUC at 24 h [18] was 11900 ng·h/mL. For the same molecule, the AUC at 24 h [19] was 16200 ng·h/mL, the Cmax [20] was 1150 ng/mL and the Cmax [21] was 1080 ng/mL. For the same molecule, the AUC at 24 h [22] was 15400 ng·h/mL, the Cmax [23] was 1300 ng/mL and the Cmax [24] was 1100 ng/mL. It also gave a Cmax [25] of 1260 ng/mL, a Cmax [26] of 1460 ng/mL and an AUC(0-t) at 24 h [27] of 18400 ng·h/mL. For the same molecule, the Cmax [28] was 1020 ng/mL, the AUC at 24 h [29] was 20700 ng·h/mL and the AUC at 24 h [30] was 13500 ng·h/mL. It also gave a Cmax [31] of 1510 ng/mL and a Cmax [32] of 1190 ng/mL.
